Reference: patent US20250215029A1 (Recludix Pharma, Inc., priority 2022, published 2025)
Where two headings read alike, the source gives them in different places.

Key:
[1] = molecular target: T1, Recombinant STAT3 protein (STAT3 (G127-I722)) (Homo sapiens, UniProt P40763); assay: STAT3 Fluorescence Polarization (FP) Assay; type: binding; conditions: probe 5-FAM-GpYLPQTV-NH2 2 nM, 45-minute incubation
T1 construct: Recombinant STAT3 protein (STAT3 (G127-I722))
Method in brief: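 Displacement of a fluorescent phosphotyrosine peptide (5-FAM-GpYLPQTV-NH2, 2 nM) from 25 nM recombinant STAT3 G127-I722 was monitored by FP after 45 min at room temperature.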

[2] = molecular target: T2, Recombinant STAT6 protein (STAT6 (W123-T658)) (Homo sapiens, UniProt P42226); assay: STAT6 Fluorescence Polarization (FP) Assay; type: binding; conditions: probe 5-FAM-Ap[…]-NH2 2 nM, 45-minute incubation
T2 construct: Recombinant STAT6 protein (STAT6 (W123-T658))
T2 sequence (P42226 123-658): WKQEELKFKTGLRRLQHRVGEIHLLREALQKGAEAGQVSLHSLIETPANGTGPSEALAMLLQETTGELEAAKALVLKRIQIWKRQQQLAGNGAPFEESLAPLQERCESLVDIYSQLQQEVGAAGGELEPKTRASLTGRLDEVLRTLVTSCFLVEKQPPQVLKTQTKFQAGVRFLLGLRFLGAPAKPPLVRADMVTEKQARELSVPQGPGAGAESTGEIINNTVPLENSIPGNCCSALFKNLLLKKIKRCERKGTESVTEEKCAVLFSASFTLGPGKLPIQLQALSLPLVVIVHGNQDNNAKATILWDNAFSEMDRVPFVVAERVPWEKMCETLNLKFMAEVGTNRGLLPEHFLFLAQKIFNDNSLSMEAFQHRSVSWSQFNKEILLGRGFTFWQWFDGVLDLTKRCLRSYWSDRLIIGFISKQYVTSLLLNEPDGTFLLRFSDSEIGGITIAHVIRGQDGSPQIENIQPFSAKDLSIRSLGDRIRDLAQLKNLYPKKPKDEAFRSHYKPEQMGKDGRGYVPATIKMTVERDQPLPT
Method in brief: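 Displacement of a fluorescent phosphotyrosine peptide (2 nM) from 250 nM STAT6 (W123-T658) is measured by polarization after a 45-minute room-temperature incubation. Compounds are titrated serially at 1% DMSO, and IC50 values derive from regression of mP on log concentration.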

[3] = STAT3 25 nM, read-out: STAT3 (FP assay IC50)
[4] = STAT6 250 nM, read-out: STAT6 (FP assay IC50)
[5] = STAT3 (G127-I722) 25 nM, read-out: STAT3 (FP assay IC50 class)
[6] = STAT6 (W123-T658) 250 nM, read-out: STAT6 (FP assay IC50 class)

T1 sequence (P40763 127-722): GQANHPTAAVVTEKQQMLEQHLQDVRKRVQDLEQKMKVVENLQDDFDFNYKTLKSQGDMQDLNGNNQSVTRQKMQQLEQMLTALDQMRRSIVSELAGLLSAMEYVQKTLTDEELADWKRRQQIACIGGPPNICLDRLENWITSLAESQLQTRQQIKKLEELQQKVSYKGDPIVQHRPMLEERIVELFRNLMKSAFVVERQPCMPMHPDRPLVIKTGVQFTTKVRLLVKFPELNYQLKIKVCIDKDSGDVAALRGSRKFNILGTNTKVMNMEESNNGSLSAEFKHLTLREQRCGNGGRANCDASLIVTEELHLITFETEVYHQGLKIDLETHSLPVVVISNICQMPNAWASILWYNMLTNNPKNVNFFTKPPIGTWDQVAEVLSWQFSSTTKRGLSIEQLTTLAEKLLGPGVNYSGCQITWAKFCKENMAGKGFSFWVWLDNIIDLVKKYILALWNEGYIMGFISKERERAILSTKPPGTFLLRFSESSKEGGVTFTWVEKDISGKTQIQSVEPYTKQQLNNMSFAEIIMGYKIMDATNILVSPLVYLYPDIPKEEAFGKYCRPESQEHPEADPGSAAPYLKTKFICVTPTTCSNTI

Row | Compound | IC50 [1, 3] [nM] | IC50 [2, 4] [nM] | IC50 [1, 5] [nM] | IC50 [2, 6] [nM]
1 | O=C(N[C@H]1CCCCC[C@H]2[C@H](O)C[C@@H](C(=O)N3CC(C(=O)N4CCOCC4)C3)N2C1=O)c1cc2cc(C(F)(F)P(=O)(O)O)ccc2s1 [Compound 77, (difluoro(2-(((1R,3S,6S, 11aS)-1-hydroxy-3-(3-(morpholine-4-carbonyl)azetidine-1-carbonyl)-5-oxodecahydro-1H-pyrrolo[1,2-a]azonin-6-yl)carbamoyl)benzo[b]thiophen-5-yl)methyl) phosphonic acid] | 100 to 1000 | 3000 to 30000 | – | –
2 | O=C(N[C@H]1CCC[C@H]2CC[C@@H](C(=O)N[C@H]3CN(c4ncc[nH]4)C[C@@H]3F)N2C1=O)c1cc2cc([C@H](F)P(=O)(O)O)ccc2s1 [Compound 637, ((R)-fluoro(2-(((3S,6S,9aS)-3-(((3S,4S)-4-fluoro-1-(1H-imidazol-2-yl)pyrrolidin-3-yl)carbamoyl)-5-oxooctahydro-1H-pyrrolo[1,2-a]azepin-6-yl)carbamoyl)benzo [b]thiophen-5-yl)methyl) phosphonic acid] | – | – | < 100 | 300 to 3000
3 | N#C[C@H]1CN(C(=O)[C@@H]2CC[C@@H]3CCCC[C@H](NC(=O)c4cc5cc(C(F)(F)P(=O)(O)O)ccc5s4)C(=O)N32)C[C@@H]1C1CCCCC1 (racemic) [Compound 91, ((2-(((3S,6S,10aS)-3-(rel-(trans)-3-cyano-4-cyclohexyl-pyrrolidine-1-carbonyl)-5-oxodecahydropyrrolo [1,2-a]azocin-6-yl)carbamoyl)benzo[b]thiophen-5-yl)difluoromethyl) phosphonic acid] | 1000 to 10000 | ≤ 300 | – | –
4 | O=C(N[C@H]1CCCC[C@H]2CC[C@@H](C(=O)NCc3ccn[nH]3)N2C1=O)c1cc2cc(C(F)(F)P(=O)(O)O)ccc2s1 [Compound 726, ((2-(((3S,6S,10aS)-3-(((212-pyrazol-3-yl)methyl)carbamoyl)-5-oxodecahydropyrrolo [1,2-a]azocin-6-yl)carbamoyl)benzo [b]thiophen-5-yl)difluoromethyl) phosphonic acid] | – | – | 100 to 1000 | 3000 to 30000
5 | O=C(N[C@H]1CCCC[C@H]2CC[C@@H](C(=O)N3Cc4ccncc4C3)N2C1=O)c1cc2cc(C(F)(F)P(=O)(O)O)ccc2s1 [Compound 789, ((2-(((3S,6S,10aS)-3-(2,3-dihydro-1H-pyrrolo[3,4-c]pyridine-2-carbonyl)-5-oxodecahydropyrrolo [1,2-a]azocin-6-yl)carbamoyl)benzo [b]thiophen-5-yl)difluoromethyl) phosphonic acid] | – | – | 100 to 1000 | 300 to 3000
6 | Cc1ccnnc1C1CN(C(=O)[C@@H]2CC[C@@H]3CCC[C@H](NC(=O)c4cc5cc(C(F)(F)P(=O)(O)O)ccc5s4)C(=O)N32)C1 [Compound 818, (difluoro(2-(((3S,6S,9aS)-3-(3-(4-methylpyridazin-3-yl)azetidine-1-carbonyl)-5-oxooctahydro-1H-pyrrolo[1,2-a]azepin-6-yl)carbamoyl)benzo [b]thiophen-5-yl)methyl) phosphonic acid] | – | – | 100 to 1000 | 3000 to 30000
7 | O=C(N[C@H]1CCC2(CC2)C[C@H]2CC[C@@H](C(=O)N3CC(c4cccnc4)C3)N2C1=O)c1cc2cc(C(F)(F)P(=O)(O)O)ccc2s1 [Compound 25, (difluoro(2-(((3′S,6′S,10a′R)-5′-oxo-3′-(3-(pyridin-3-yl)azetidine-1-carbonyl)octahydro-1′H-spiro [cyclopropane-1,9′-pyrrolo[1,2-a]azocin]-6′-yl)carbamoyl)benzo[b]thiophen-5-yl)methyl) phosphonic acid] | < 100 | 300 to 3000 | – | –
8 | COc1cncc([C@@H]2CN(C(=O)[C@@H]3CC[C@@H]4CCC[C@H](NC(=O)c5cc6cc([C@H](F)P(=O)(O)O)ccc6s5)C(=O)N43)C3(CC3)[C@H]2C#N)c1 (single isomer, unassigned) [Compound 843] | – | – | 1000 to 10000 | 300 to 3000
9 | Cn1ccc(C2(F)CCN(C(=O)[C@@H]3CC[C@@H]4CCCC[C@H](NC(=O)c5ccc6ccc(C(F)P(=O)(O)O)cc6c5)C(=O)N43)C2)cc1=O (stereo partly drawn) [Compound 903, (fluoro(7-(((3S,6S,10aS)-3-(3-fluoro-3-(1-methyl-2-oxo-1,2-dihydropyridin-4-yl)pyrrolidine-1-carbonyl)-5-oxodecahydropyrrolo [1,2-a]azocin-6-yl)carbamoyl)naphthalen-2-yl)methyl) phosphonic acid] | – | – | 1000 to 10000 | 300 to 3000

The next lines start with the values.

Row | IC50 [1, 3] [nM] | IC50 [2, 4] [nM] | IC50 [1, 5] [nM] | IC50 [2, 6] [nM] | Compound
10 | – | – | < 100 | 3000 to 30000 | COCCNC1(c2ccccn2)CN(C(=O)[C@@H]2CC[C@@H]3CCCC[C@H](NC(=O)c4cc5cc(C(F)P(=O)(O)O)ccc5s4)C(=O)N32)C1 (stereo partly drawn) [Compound 568, (fluoro(2-(((3S,6S,10aS)-3-(3-((2-methoxyethyl)amino)-3-(pyridin-2-yl)azetidine-1-carbonyl)-5-oxodecahydropyrrolo[1,2-a]azocin-6-yl)carbamoyl)benzo[b]thiophen-5-yl)methyl)phosphonic acid]
11 | – | – | 1000 to 10000 | 3000 to 30000 | O=C(N[C@H]1CCC[C@H]2CC[C@@H](C(=O)N3CC(c4nccnc4F)C3)N2C1=O)c1cc2cc(CP(=O)(O)O)ccc2s1 [Compound 538, ((2-(((3S,6S,9aS)-3-(3-(3-fluoropyrazin-2-yl)azetidine-1-carbonyl)-5-oxooctahydro-1H-pyrrolo[1,2-a]azepin-6-yl)carbamoyl)benzo[b]thiophen-5-yl)methyl)phosphonic acid]
12 | – | – | 100 to 1000 | 3000 to 30000 | O=C(N[C@H]1CCC[C@H]2CC[C@@H](C(=O)N3CC(c4ccncc4)C3)N2C1=O)c1cc2cc(C(F)P(=O)(O)O)ccc2s1 (stereo partly drawn) [Compound 611, (fluoro(2-(((3S,6S,9aS)-5-oxo-3-(3-(pyridin-4-yl)azetidine-1-carbonyl)octahydro-1H-pyrrolo[1,2-a]azepin-6-yl)carbamoyl)benzo [b]thiophen-5-yl)methyl) phosphonic acid]
13 | – | – | < 100 | 300 to 3000 | COCC1CN(c2ccncc2C2CN(C(=O)[C@@H]3CC[C@@H]4CCC[C@H](NC(=O)c5cc6cc([C@@H](F)P(=O)(O)O)ccc6s5)C(=O)N43)C2)C1 [Compound 856, ((S)-fluoro(2-(((3S,6S,9aS)-3-(3-(4-(3-(methoxymethyl)azetidin-1-yl)pyridin-3-yl)azetidine-1-carbonyl)-5-oxooctahydro-1H-pyrrolo[1,2-a]azepin-6-yl)carbamoyl)benzo [b]thiophen-5-yl)methyl) phosphonic acid]
14 | – | – | 1000 to 10000 | 3000 to 30000 | O=C(N[C@H]1CCCC[C@H]2CC[C@@H](C(=O)N3CCC(c4ccncn4)CC3)N2C1=O)c1cc2cc(C(F)P(=O)(O)O)ccc2s1 (stereo partly drawn) [Compound 590, (fluoro(2-(((3S,6S,10aS)-5-oxo-3-(4-(pyrimidin-4-yl)piperidine-1-carbonyl)decahydropyrrolo[1,2-a]azocin-6-yl)carbamoyl)benzo[b]thiophen-5-yl)methyl)phosphonic acid]
15 | – | – | 100 to 1000 | 3000 to 30000 | O=C(N[C@H]1CCC[C@H]2CC[C@@H](C(=O)N3CC4(C3)OCc3ccncc34)N2C1=O)c1cc2cc(C(F)P(=O)(O)O)ccc2s1 (stereo partly drawn) [Compound 630, (fluoro(2-(((3S,6S,9aS)-5-oxo-3-(1′H-spiro[azetidine-3,3′-furo [3,4-c]pyridine]-1-carbonyl)octahydro-1H-pyrrolo[1,2-a]azepin-6-yl)carbamoyl)benzo [b]thiophen-5-yl)methyl) phosphonic acid]
16 | – | – | < 100 | 300 to 3000 | CN(C)c1ccncc1C1CN(C(=O)[C@@H]2CC[C@@H]3CCC[C@H](NC(=O)c4cc5cc([C@H](F)P(=O)(O)O)ccc5s4)C(=O)N32)C1 (single isomer, unassigned) [Compound 634]
17 | – | – | < 100 | 3000 to 30000 | O=C(N[C@H]1CCC[C@H]2CC[C@@H](C(=O)N3CC(c4cnccc4OCc4ccncc4)C3)N2C1=O)c1cc2cc(C(F)P(=O)(O)O)ccc2s1 (stereo partly drawn) [Compound 705, (fluoro(2-(((3S,6S,9aS)-5-oxo-3-(3-(4-(pyridin-4-ylmethoxy)pyridin-3-yl)azetidine-1-carbonyl)octahydro-1H-pyrrolo[1,2-a]azepin-6-yl)carbamoyl)benzo [b]thiophen-5-yl)methyl) phosphonic acid]
